Key:
[1] = tested on: surinam grass; test: Test B pre/postemergence surinam grass; assay type: in vivo, Brachiaria decumbens
Outline: (§1)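 Herbicidal effect was estimated by eye on a ten-point control scale after plants spent twelve to sixteen days in a greenhouse following soil or foliar treatment. Foliar sprays targeted plants at one to four leaves; all doses were formulated in a non-phytotoxic solvent with surfactant.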

[2] = tested on: cocklebur; test: Test B pre/postemergence cocklebur; assay type: in vivo, Xanthium strumarium
Outline: as §1

[3] = tested on: corn; test: Test B pre/postemergence corn; assay type: in vivo, Zea mays
Outline: as §1

[4] = tested on: crabgrass; test: Test B pre/postemergence crabgrass; assay type: in vivo, Digitaria sanguinalis
Outline: as §1

[5] = tested on: giant foxtail; test: Test B pre/postemergence giant foxtail; assay type: in vivo, Setaria faberii
Outline: as §1

[6] = tested on: morningglory; test: Test B pre/postemergence morningglory; assay type: in vivo, Ipomoea hederacea
Outline: as §1

[7] = tested on: pigweed; test: Test B pre/postemergence pigweed; assay type: in vivo, Amaranthus retroflexus
Outline: as §1

[8] = tested on: rape; test: Test B pre/postemergence rape; assay type: in vivo, Brassica napus
Outline: as §1

[9] = tested on: soybean; test: Test B pre/postemergence soybean; assay type: in vivo, Glycine max
Outline: as §1

[10] = tested on: sugar beet; test: Test B pre/postemergence sugar beet; assay type: in vivo, Beta vulgaris
Outline: as §1

[11] = tested on: wild oat; test: Test B pre/postemergence wild oat; assay type: in vivo, Avena fatua
Outline: as §1

[12] = tested on: purple nutsedge; test: Test B pre/postemergence purple nutsedge; assay type: in vivo, Cyperus rotundus
Outline: as §1

[13] = tested on: rice; test: Test B flood test rice; assay type: in vivo, Oryza sativa
Outline: (§2)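 Each value is a visual injury score relative to controls, with 10 meaning complete control and 0 no effect. Evaluation took place twelve to sixteen days after the 2-leaf-stage plants were treated and kept in the greenhouse.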

[14] = tested on: smallflower flatsedge; test: Test B flood test smallflower flatsedge; assay type: in vivo, Cyperus difformis
Outline: as §2

[15] = tested on: duck salad; test: Test B flood test duck salad; assay type: in vivo, Heteranthera limosa
Outline: as §2

[16] = tested on: bamyardgrass; test: Test B flood test barnyardgrass; assay type: in vivo, Echinochloa crus-galli
Outline: as §2

[17] = Preemergence, Rate 62 g/ha, scale of 0 to 10 where 0 is no effect and 10 is complete control
[18] = Preemergence, Rate 250 g/ha, scale of 0 to 10 where 0 is no effect and 10 is complete control
[19] = Preemergence, Rate 500 g/ha, scale of 0 to 10 where 0 is no effect and 10 is complete control
[20] = Rate 62 g/ha, Postemergence, scale 0 to 10 (0 no effect, 10 complete control)
[21] = Rate 125 g/ha, Postemergence, scale of 0 to 10 where 0 is no effect and 10 is complete control
[22] = Rate 250 g/ha, Postemergence, scale of 0 to 10 where 0 is no effect and 10 is complete control
[23] = Rate 500 g/ha, Postemergence, scale 0 to 10, 0 no effect, 10 complete control
[24] = Rate 62 g/ha, headed Pre-emergence (flood test species), scale 0 to 10 (0 no effect, 10 complete control)
[25] = Rate 125 g/ha, Pre-emergence, flood test species, scale 0 to 10 where 0 is no effect and 10 is complete control
[26] = Rate 250 g/ha, Pre-emergence, flood-test species, scale 0 to 10, 0 is no effect, 10 is complete control
[27] = Rate 500 g/ha, Pre-emergence, flood test species, scale 0 to 10 (0 no effect, 10 complete control)

CC(C)N(C(=O)n1oc(=O)n(Cc2nnsc2Cl)c1=O)c1ccc(F)cc1F [Compound 320]
0: B. signalgrass plant response rating [1, 17] | B. signalgrass plant response rating [1, 20] | B. signalgrass plant response rating [1, 21] | Plant response rating, B. signalgrass [1, 22] | B. signalgrass plant response rating [1, 23] | Cocklebur plant response rating [2, 17] | Cocklebur plant response rating (0 to 10 scale) ([2]; Preemergence, Rate 125 g/ha) | Cocklebur plant response rating [2, 19] | Cocklebur plant response rating [2, 20] | Cocklebur plant response rating [2, 21] | Plant response rating, Cocklebur [2, 22] | Cocklebur plant response rating [2, 23] | Corn plant response rating [3, 17] | Corn plant response rating (0 to 10 scale) ([3]; Preemergence, Rate 125 g/ha) | Corn plant response rating [3, 18] | Corn plant response rating [3, 19] | Corn plant response rating [3, 20] | Corn plant response rating [3, 21] | Plant response rating, Corn [3, 22] | Corn plant response rating [3, 23] | Crabgrass plant response rating [4, 20] | Crabgrass plant response rating [4, 21] | Plant response rating, Crabgrass [4, 22] | Giant foxtail plant response rating [5, 17] | Giant foxtail plant response rating [5, 20] | Giant foxtail plant response rating [5, 21] | Plant response rating, Giant foxtail [5, 22] | Morningglory plant response rating [6, 17] | Morningglory plant response rating (0 to 10 scale) ([6]; Preemergence, Rate 125 g/ha) | Morningglory plant response rating [6, 18] | Morningglory plant response rating [6, 19] | Redroot pigweed plant response rating [7, 17] | Redroot pigweed plant response rating (0 to 10 scale) ([7]; Preemergence, Rate 125 g/ha) | Redroot pigweed plant response rating [7, 18] | Redroot pigweed plant response rating [7, 19] | Rape plant response rating [8, 17] | Rape plant response rating (0 to 10 scale) ([8]; Preemergence, Rate 125 g/ha) | Rape plant response rating [8, 18] | Rape plant response rating [8, 19] | Rape plant response rating [8, 20] | Soybean plant response rating [9, 17] | Soybean plant response rating (0 to 10 scale) ([9]; Preemergence, Rate 125 g/ha) | Soybean plant response rating [9, 18] | Soybean plant response rating [9, 19] | Sugarbeets plant response rating [10, 17] | Sugarbeets plant response rating (0 to 10 scale) ([10]; Preemergence, Rate 125 g/ha) | Sugarbeets plant response rating [10, 18] | Sugarbeets plant response rating [10, 19] | Sugarbeets plant response rating [10, 20] | Wild oats plant response rating [11, 17] | Wild oats plant response rating (0 to 10 scale) ([11]; Preemergence, Rate 125 g/ha) | Wild oats plant response rating [11, 18] | Wild oats plant response rating [11, 19] | Wild oats plant response rating [11, 20] | Wild oats plant response rating [11, 21] | Plant response rating, Wild oats [11, 22] | Nutsedge plant response rating [12, 17] | Nutsedge plant response rating (0 to 10 scale) ([12]; Preemergence, Rate 125 g/ha) | Nutsedge plant response rating [12, 18] | Nutsedge plant response rating [12, 19] | Nutsedge plant response rating [12, 20] | Nutsedge plant response rating [12, 21] | Plant response rating, Nutsedge [12, 22] | Rice plant response rating [13, 24] | Rice plant response rating [13, 25] | Rice plant response rating [13, 26] | Rice plant response rating [13, 27] | S. Flatsedge plant response rating [14, 24] | S. Flatsedge plant response rating [14, 25] | S. Flatsedge plant response rating [14, 26] | S. Flatsedge plant response rating [14, 27] | Ducksalad plant response rating [15, 24] | Ducksalad plant response rating [15, 25] | Ducksalad plant response rating [15, 26] | Ducksalad plant response rating [15, 27] | Barnyardgrass plant response rating [16, 24] | Barnyardgrass plant response rating [16, 25] | Barnyardgrass plant response rating [16, 26] | Barnyardgrass plant response rating [16, 27]
7: Crabgrass plant response rating [4, 19] | Giant foxtail plant response rating [5, 19]
6: Giant foxtail plant response rating [5, 18] | Redroot pigweed plant response rating [7, 21] | Plant response rating, Redroot pigweed [7, 22]
1: B. signalgrass plant response rating (0 to 10 scale, 0 is no effect, 10 is complete control) ([1]; Preemergence, Rate 125 g/ha) | Morningglory plant response rating [6, 20] | Morningglory plant response rating [6, 21]
2: B. signalgrass plant response rating [1, 18] | Crabgrass plant response rating [4, 17] | Soybean plant response rating [9, 20] | Sugarbeets plant response rating [10, 21] | Plant response rating, Sugarbeets [10, 22]
3: B. signalgrass plant response rating [1, 19] | Crabgrass plant response rating (0 to 10 scale) ([4]; Preemergence, Rate 125 g/ha) | Crabgrass plant response rating [4, 18] | Plant response rating, Morningglory [6, 22] | Redroot pigweed plant response rating [7, 20] | Rape plant response rating [8, 21] | Plant response rating, Rape [8, 22] | Soybean plant response rating [9, 21] | Plant response rating, Soybean [9, 22]

Source: US6737383B1, “Herbicidal oxadiazolidines” (priority 1999, dated 2004)
